{"source": "patent US20110281802A1", "about": "“COMPOSITION FOR TREATMENT AND PREVENTION OF HAIR LOSS AND PREMATURE GRAYING OF HAIR” (Immudiagnostik AG, priority 2007, published 2011)", "system": "Prolactin", "experiment": "Immunohistochemical staining of treated hair follicles for prolactin (assay #6)", "format": "cell-based, human", "conditions": "10 pg/mL and 100 pg/mL, few hair follicles, very preliminary", "protocol": "The staining was performed according to the following protocol:\nA. Prolactin: Pre-treatment with 0.5% Triton X (Fluka, Sigma Aldrich, Taufkirchen, Germany; CatNo 93420) in TBS for 10 minutes at room temperature, three washings in TBS for five minutes each, treatment with 0.6% H2O2 in methanol three times for 15 minutes, washes in TBS. Pre-incubation with 10% rabbit serum (Dako Cytomation, CatNo X0902) in TBS with 3% BSA for 20 minutes, incubation with primary antibody (goat anti-human prolactin, Santa Cruz Biotechnology, Inc., Santa Cruz, Calif., USA; CatNo SC-7805), dilution 1:100 in TBS+2% rabbit serum (Dako Cytomation, CatNo X0902) overnight at 4° C. Thereafter washes in TBS. Incubation with secondary antibody (rabbit anti-goat-biotinylated, DAKO Cytomation, CatNo E0466) diluted to 1:200 with 2% rabbit serum in TBS for 45 minutes at room temperature. Treatment with Avidin Biotin Complex-alkaline phosphatase (Vector Laboratories, Burlingame, Calif., USA; CatNo AK-5000) for 30 minutes, then washing in TBS. Thereafter treatment with Fast Red Tablets (Sigma-Aldrich, CatNo F4648-50SET) for 6 minutes. Counterstaining with Mayer's Haemalaun (Chroma Muenster, CatNo 2E038) and mounting with Aquamount (DAKO Cytomation, CatNo S3025).\nIn both assays human pituitary gland was set as positive control and negative control were hair follicles treated without the primary antibody.", "data": [{"substance": "thymulin", "values": [{"measurement": "Immunoreactivity for Prolactin in treated hair follicles (in words)", "result": "some additional staining in the IRS"}]}]}
